Experimental data published in patent US20230132823A1, “BI-FUNCTIONAL COMPOUNDS AND METHODS FOR TARGETED UBIQUITINATION OF ANDROGEN RECEPTOR” (MONTELINO THERAPEUTICS, INC., priority 2020, published 2023).

Columns and labels:
PC3 = PC3 cell proliferation; assay type: cell-based, human; conditions: AR-negative cell line; 1 μM
Experimental: The human prostate cancer cell line, 22Rv1 has been reported to express a high level of AR-V7. Thus, 22Rv1 was seeded at 50,000 cells/well on a 24-well plate in quadruplicates and treated with test compound in concentrations ranging up to 20 μM for four days. Standard culture media was RPMI-1640 supplemented with 10% fetal bovine serum. The test compound initially was dissolved in DMSO at 50 mM. This stock solution was then diluted as needed for the indicated concentrations. At the end of the four-day period, cells were harvested using 1% trypsin and counted using an automated cell counter.
Cell Culture. Human CaP cell lines, LNCaP, 22Rv1, VCaP, PC3, and DU145 are obtained from the American Type Culture Collection (ATCC) and maintained in the standard culture media: RPMI-1640 supplemented with 10% fetal bovine serum (FBS). LNCaP, 22Rv1, and VCaP are androgen-responsive cell lines, while PC3 and DU145 are not. To establish SAT resistant CaP cell lines, LNCaP, 22Rv1, and VCaP are treated continuously with 10-50 μM abiraterone, apalutamide, darolutamide, or enzalutamide. […] Mycoplasma contamination is also assessed using a PCR based detection system.

22Rv1 cells = experiment: Apoptosis assay (annexin-V, TUNEL) in 22Rv1; assay type: cell-based, human; conditions: 22Rv1, 1 μM
Experimental: Apoptosis Assay. An apoptosis assay is carried out using the Thermo Fisher ApoDETECT Annexin V-FITC kit following the protocol recommended by the vendor. […] Then, fixed cells are incubated with Annexin V-FITC in PBS solution for 30 minutes at room temperature. After washing three times with PBS, cells are treated with 300 nM DAPI in PBS for 5 minutes at room temperature. Finally, after washing three times with PBS, mounting solution is added and the cells are visualized using immunofluorescence microscopy. Next, a TUNEL assay is performed using Promega DeadEnd Fluorometric TUNEL system. After treatment with Test Compound and fixation as described above in the Annexin-V experiment, 100 μl of equilibration buffer is incubated for 10 min. Then, 50 μl of TdT reaction mix is added and incubated for 60 min at 37° C. in a humidified chamber. Finally, stop solution is added and samples are mounted on slides using mounting medium. To assess non-specific cytotoxicity, an LDH assay kit is used.

22Rv1 = 22Rv1 cell proliferation assay (Experimental Example 3); assay type: cell-based, human; conditions: for 22Rv1 cell count, % of control: 6 days
Experimental: The human prostate cancer cell line, 22Rv1 has been reported to express a high level of AR-V7. […] Standard culture media was RPMI-1640 supplemented with 10% fetal bovine serum. The test compound initially was dissolved in DMSO at 50 mM. This stock solution was then diluted as needed for the indicated concentrations. […]
(§1) Cell Culture. Human CaP cell lines, LNCaP, 22Rv1, VCaP, PC3, and DU145 are obtained from the American Type Culture Collection (ATCC) and maintained in the standard culture media: RPMI-1640 supplemented with 10% fetal bovine serum (FBS). LNCaP, 22Rv1, and VCaP are androgen-responsive cell lines, while PC3 and DU145 are not. To establish SAT resistant CaP cell lines, LNCaP, 22Rv1, and VCaP are treated continuously with 10-50 μM abiraterone, apalutamide, darolutamide, or enzalutamide. After 3-6 months, stable cell lines are established and designated as LNCaP-Abi^R, LNCaP-Apa^R, LNCaP-Daro^R, LNCaP-Enz^R, VCaP-Abi^R, VCaP-Apa^R, VCaP-Daro^R, VCaP-Enz^R, 22Rv1-Abi^R, 22Rv1-Apa^R, 22Rv1-Daro^R and 22Rv1-Enz^R. Unless otherwise specified, the standard culture media for these SAT-resistant cell lines included 10 μM of their respective SAT. For the proteasome inhibitor study, the inhibitors MG132 and Epoxomicin are used. The E3 ligase inhibitors Heclin, Nutlin 3a, Thalidomide, and VH298 are used. Cell lines obtained from ATCC are confirmed by checking their morphology using optical microscopy, establishing baselines for cell proliferation, verifying species of origin using isoenzymology, and characterizing the cell's DNA fingerprint using short tandem repeat (STR) profiling. Mycoplasma contamination is also assessed using a PCR based detection system.

[1] = target: T1, estrogen receptor alpha (ER) (Homo sapiens, UniProt P03372); experiment: Immunoblot of ER alpha in 22Rv1 cells; assay type: cell-based; conditions: 22Rv1, 24 hours, up to 10 μM
T1 construct: progesterone receptor (PR) a and b, and estrogen receptor alpha (ER); endogenous in cells; host or cells: 22Rv1
T1 sequence (P03372 1-595): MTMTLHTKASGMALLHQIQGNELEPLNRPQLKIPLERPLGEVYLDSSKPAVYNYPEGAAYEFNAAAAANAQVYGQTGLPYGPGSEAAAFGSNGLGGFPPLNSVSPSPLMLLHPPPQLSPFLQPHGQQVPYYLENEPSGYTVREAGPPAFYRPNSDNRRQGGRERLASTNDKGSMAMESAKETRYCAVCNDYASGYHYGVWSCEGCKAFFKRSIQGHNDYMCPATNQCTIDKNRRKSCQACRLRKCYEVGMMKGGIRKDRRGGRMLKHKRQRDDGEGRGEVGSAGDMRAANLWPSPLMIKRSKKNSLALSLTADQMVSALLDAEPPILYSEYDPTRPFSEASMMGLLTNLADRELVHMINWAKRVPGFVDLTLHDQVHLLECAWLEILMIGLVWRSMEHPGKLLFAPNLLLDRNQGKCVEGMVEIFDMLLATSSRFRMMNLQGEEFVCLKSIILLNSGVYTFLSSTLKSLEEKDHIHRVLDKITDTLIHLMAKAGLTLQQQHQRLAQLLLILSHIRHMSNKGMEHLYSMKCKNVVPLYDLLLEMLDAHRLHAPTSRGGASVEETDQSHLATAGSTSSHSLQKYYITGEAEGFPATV
Experimental: as §1, with “Cell lines obtained from ATCC are confirmed by checking their morphology using optical microscopy, establishing baselines for cell proliferation, verifying species of origin using isoenzymology, and characterizing the cell's DNA fingerprint using short tandem repeat (STR) profiling.” left out
Immunoblot Analysis. […] Cell lysates are then centrifuged and protein in the supernatant is quantified. […] Following the incubation with appropriate secondary antibody, immunoblots are analyzed using SuperSignal West Femto Maximum Sensitivity Substrate (ThermoFisher).

effect on expression level of estrogen receptor alpha (ER) [1]: no visible effect
SMILES: Cc1ncsc1-c1ccc([C@H](C)NC(=O)[C@@H]2C[C@@H](O)CN2C(=O)[C@@H](NC(=O)CCCCNC(=O)COc2c(-c3csc(N4CCOCC4)n3)ccc(F)c2F)C(C)(C)C)cc1 [Example 16, (2S,4R)-1-((S)-2-(5-(2-(2,3-difluoro-6-(2-morpholinothiazol-4-yl)phenoxy)acetamido)pentanamido)-3,3-dimethylbutanoyl)-4-hydroxy-N-((S)-1-(4-(4-methylthiazol-5-yl)phenyl)ethyl)pyrrolidine-2-carboxamide]
effect on PC3 cells (PC3): not affected | apoptosis, TUNEL assay (22Rv1 cells): confirmed | apoptosis, annexin-V assay (22Rv1 cells; 0 to 48 hours, starts approximately three hours after treatment, increases through 48 hours): increase in annexin-V staining | 22Rv1 cell count, % of control (22Rv1; 0.01 μM): approximately 90 % of control | 22Rv1 cell count, % of control (22Rv1; 0.1 μM): ~70 % of control | 22Rv1 cell count, % of the control (side to side cell line comparison) (22Rv1; 1 μM): approximately 40 % of the control | 22Rv1 cell count, % of control (22Rv1; 1 μM): ~65 % of control
